The target in this assay is T1, gastrin (CCK2) receptors (Rattus norvegicus, UniProt P30553).
T1 construct: The stomach was excised and flushed with ca. 1 ml of unbuffered physiological saline solution; from tissue; host or cells: isolated whole stomach of immature rats (33-50 g, ca. 21 days old)
T1 sequence (P30553 1-452): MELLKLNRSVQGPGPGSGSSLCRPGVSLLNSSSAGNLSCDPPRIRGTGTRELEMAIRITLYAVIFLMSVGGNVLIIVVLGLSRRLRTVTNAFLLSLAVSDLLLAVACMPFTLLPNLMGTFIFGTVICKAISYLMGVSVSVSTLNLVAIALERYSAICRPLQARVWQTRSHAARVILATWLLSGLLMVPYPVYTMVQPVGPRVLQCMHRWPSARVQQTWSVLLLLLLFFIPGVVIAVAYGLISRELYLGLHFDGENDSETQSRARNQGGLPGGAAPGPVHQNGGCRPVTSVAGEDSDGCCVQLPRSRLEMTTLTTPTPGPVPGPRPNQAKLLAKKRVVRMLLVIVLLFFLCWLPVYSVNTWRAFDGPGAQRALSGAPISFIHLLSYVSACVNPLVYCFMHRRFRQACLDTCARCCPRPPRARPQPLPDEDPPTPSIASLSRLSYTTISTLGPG
Put plainly: immature rat stomach assay for gastrin (CCK2) antagonist activity (pentagastrin-stimulated acid secretion). The note with it: isolated immature rat stomach, antagonism of pentagastrin dose-response curves, 60 min incubation, tested as N-methyl D-glucamine salts; for Kb: read-out: Rat stomach pKB (converted). Here is the method: The compounds of the examples were tested for gastrin (CCK2) antagonist activity in an immature rat stomach assay. The procedure was as follows:
The oesophagus of immature rats (33-50 g, ca. 21 days old) was ligated at the level of the cardiac sphincter and the duodenal sphincter was cannulated. The stomach was excised and flushed with ca. 1 ml of unbuffered physiological saline solution. The fundus was punctured and cannulated. A further 4-5 ml of unbuffered solution was flushed through the stomach to ensure the preparation was not leaking. The stomach was lowered into a jacketed organ bath containing 40 ml of buffered solution containing 3×10^−8 M 5-methylfurmethide, maintained at 37° and gassed vigorously with 95% O2/5% CO2. The stomach was continuously perfused at a rate of 1 ml min^−1 with unbuffered solution gassed with 100% O2 with the perfusate passing over an internally referenced pH-electrode fixed 12 cm above the stomach.
After 120 min of stabilisation the drugs were added directly to the serosal solution in the organ bath and after a further 60 min cumulative pentagastrin dose-response curves were started. Changes in acid secretion were monitored and the curves analysed according to Black et al, Br. J. Pharmacol., 1985, 86, 581.

On to `O=C(O)c1cccc(NC(=O)c2nn(-c3c(Cl)cccc3Cl)nc2COC2CCCCC2)c1` [Example 30, 3-{[5-Cyclohexyloxymethyl-2-(2,6-dichloro-phenyl)-2H-[1,2,3]triazole-4-carbonyl]-amino}-benzoic acid], for which the Kb was 0.275 µM.

Consider `Cc1ccccc1-n1nc(COC23CC4CC(CC(C4)C2)C3)c(C(=O)Nc2cccc(C(=O)O)c2)n1` [Example 1, 3-[[5-(Adamantan-1-yloxymethyl)-2-(2-methyl-phenyl)-2H-[1,2,3]triazole-4-carbonyl]-amino]-benzoic acid], for which the Kb was 0.0437 µM.

Regarding `O=C(O)c1cccc(NC(=O)c2nn(C3C4CC5CC(C4)CC3C5)nc2COC23CC4CC(CC(C4)C2)C3)c1` (stereo not shown) [Example 16, 3-[[2-Adamantan-2-yl-5-(Adamantan-1-yloxymethyl)-2H-[1,2,3]triazole-4-carbonyl]-amino]-benzoic acid.], the “Rat stomach pKB” value is on record as 6.82 ± 0.17.

For `COc1ccccc1-n1nc(COC23CC4CC(CC(C4)C2)C3)c(C(=O)Nc2cccc(C(=O)O)c2)n1` [Example 10, 3-[[5-(Adamantan-1-yloxymethyl)-2-(2-methoxy-phenyl)-2H-[1,2,3]triazole-4-carbonyl]amino]-benzoic acid], the Kb is 0.0417 µM.

Values taken from patent US7105558B2, “Gastrin and cholecystokinin receptor lignads (iv)” (The James Black Foundation Limited, priority 2000, dated 2006).
